Reference: patent publication US20250144067A1, “PERSONALIZED STARVATION THERAPY FOR CANCER” (Faeth Therapeutics, Inc., priority 2021, published 2025)
Where a name gives a salt, the structure may show the parent alone. Read-outs that look alike come from different tables or passages of the source. Square brackets hold non-standard residues; d marks the D form. Peptide text beside a SMILES is read from it. * marks the point of attachment. dPhe(4-NHCONH2) = NC(=O)Nc1ccc(C[C@@H](N)C(=O)O)cc1; Dihydroorotyl(S) = O=C1C[C@@H](C(=O)*)NC(=O)N1; dPhe(4-Cl) = N[C@H](Cc1ccc(Cl)cc1)C(=O)O; Phe(4-NH2) = Nc1ccc(C[C@H](N)C(=O)O)cc1; d2Nal = N[C@H](Cc1ccc2ccccc2c1)C(=O)O; Lys(iPr) = CC(C)NCCCC[C@H](N)C(=O)O; d3Pal = N[C@H](Cc1cccnc1)C(=O)O

Experiments:
[1] = tested on: NCI-H292 lung cancer cells; assay: FDA drug screening, complete media vs cholesterol-free media without statin (TABLE 1); assay type: cell-based, human
[2] = tested on: NCI-H292 lung cancer cells; assay: FDA drug screening, complete media vs cholesterol-free media with simvastatin (TABLE 2); assay type: cell-based, human
[3] = Complete minus Cholesterol-free, greater than 0 enhanced anti-cancer activity, about 0 neutral, below 0 antagonist
[4] = NCI-H292 cells, FDA drug library screen, cholesterol-free media without statin
[5] = NCI-H292 cells, FDA drug library screen, complete media
[6] = NCI-H292 cells, FDA drug library screen, cholesterol-free media with simvastatin 0.04 μM
[7] = complete media minus cholesterol-free media + simvastatin, >0 enhanced anti-cancer activity, about 0 neutral, <0 antagonist
[8] = NCI-H292 cells, cholesterol-free media without statin
[9] = complete vs cholesterol-free media, greater than 0 enhanced anti-cancer activity, about 0 neutral, below 0 antagonists
[10] = Complete minus Cholesterol-free, >0 enhanced anti-cancer activity, about 0 neutral, <0 antagonist
[11] = NCI-H292 cells, cholesterol-free media with simvastatin 0.04 μM, FDA drug library screen (TABLE 2)
[12] = NCI-H292 cells, complete media, FDA drug library screen (TABLE 2)
[13] = complete media minus cholesterol-free media + simvastatin (0.04 μM), >0 enhanced anti-cancer activity, about 0 neutral, <0 antagonist
[14] = NCI-H292 cells, drug in cholesterol-free media with simvastatin 0.04 μM
[15] = NCI-H292 cells, drug in complete media
[16] = complete media vs cholesterol-free media + simvastatin (0.04 μM), >0 enhanced anti-cancer activity, about 0 neutral, <0 antagonist
[17] = NCI-H292 cells, FDA library drug in cholesterol-free media with simvastatin 0.04 μM
[18] = NCI-H292 cells, FDA library drug in complete media
[19] = Complete minus Cholesterol-free, […]
[20] = NCI-H292 cells, cholesterol-free media without statin, FDA drug library screen
[21] = NCI-H292 cells, complete media, FDA drug library screen
[22] = complete vs cholesterol-free media, >0 enhanced anti-cancer activity, about 0 neutral, <0 antagonist
[23] = NCI-H292 cells in cholesterol-free media without statin
[24] = NCI-H292 cells in complete media
[25] = Complete minus Cholesterol-free, greater than 0 enhanced anti-cancer activity, about 0 neutral, below 0 antagonists

Molecule | Difference [1, 3] | Cholesterol-free [1, 4] | Complete [1, 5] | Cholesterol-free media + simvastatin (0.04 μM) [2, 6] | Complete Media [2, 5] | Cholesterol-free [1, 8] | Complete ([1]; NCI-H292 cells, complete media) | Cholesterol-free media + simvastatin (0.04 μM) [2, 14] | Complete Media [2, 15] | Difference [2, 16] | other results
CN1CC(O)C2=C/C(=N/NC(N)=O)C(=O)C=C21 (centres unmarked) [Carbazochrome] | −0.14 | 1.112 | 0.9668 | 1.082 | 1.238 | – | – | – | – | – | Difference [2, 7]: 0.16
CN(C)CC/C=C1/c2ccccc2Sc2ccc(Cl)cc21 [Chlorprothixene (hydrochloride)] | – | – | – | 0.8374 | 1.056 | 1.492 | 1.027 | – | – | – | Difference [1, 9]: −0.46; Difference [2, 7]: 0.22
CC(C)(C)C(=O)Oc1ccc(S(=O)(=O)Nc2ccccc2C(=O)NCC(=O)O)cc1 [Sivelestat (sodium tetrahydrate)] | – | – | – | – | – | 1.29 | 0.9928 | – | – | – | Difference [1, 10]: −0.30; Cholesterol-free media + simvastatin (0.04 μM) [2, 11]: 1.071; Complete Media [2, 12]: 1.039; Difference [2, 13]: −0.03
NC(=O)c1ncn([C@@H]2O[C@H](CO)[C@@H](O)[C@H]2O)n1 [Ribavirin] | −0.11 | 0.8402 | 0.7281 | – | – | – | – | 0.9314 | 0.6899 | −0.24 | –
C[C@@H](O)[C@H]1C(=O)N2C(C(=O)O)=C(S[C@@H]3CN[C@H](CNS(N)(=O)=O)C3)[C@H](C)[C@H]12 [Doripenem (monohydrate)] | – | – | – | 0.9911 | 0.8363 | 1.011 | 0.7618 | – | – | −0.15 | Difference [1, 10]: −0.25
CNCc1ccc(-c2[nH]c3cc(F)cc4c3c2CCNC4=O)cc1 [Rucaparib (Camsylate)] | – | – | – | – | – | 1.063 | 0.7996 | – | – | −0.28 | Difference [1, 10]: −0.26; Cholesterol-free media + simvastatin (0.04 μM) [2, 17]: 1.277; Complete Media [2, 18]: 0.994
CC(=O)Oc1cc(C)c(OC(C)=O)c2ccccc12 [Vitamin K4] | – | – | – | – | – | 0.9817 | 0.7726 | – | – | – | Difference [1, 19]: −0.21; Cholesterol-free media + simvastatin (0.04 μM) ([2]; NCI-H292 cells, cholesterol-free media with simvastatin 0.04 μM, […]): 0.7559; Complete Media ([2]; NCI-H292 cells, complete media, […]): 0.8779; Difference ([2]; complete media minus cholesterol-free media + simvastatin, […]): 0.12
O=c1[nH]c(=O)n([C@H]2C[C@H](O)[C@@H](CO)O2)cc1I [Idoxuridine] | – | – | – | – | – | – | – | 1.124 | 0.9636 | −0.16 | Cholesterol-free [1, 20]: 0.8751; Complete [1, 21]: 1.387; Difference [1, 22]: 0.51
CC(=O)N[C@H](Cc1ccc2ccccc2c1)C(=O)N[C@H](Cc1ccc(Cl)cc1)C(=O)N[C@H](Cc1cccnc1)C(=O)N[C@@H](CO)C(=O)N[C@@H](Cc1ccc(NC(=O)[C@@H]2CC(=O)NC(=O)N2)cc1)C(=O)N[C@H](Cc1ccc(NC(N)=O)cc1)C(=O)N[C@@H](CC(C)C)C(=O)N[C@@H](CCCCNC(C)C)C(=O)N1CCC[C@H]1C(=O)N[C@H](C)C(N)=O [Degarelix] (Ac-[d2Nal][dPhe(4-Cl)][d3Pal]S[Phe(4-NH2)](Dihydroorotyl(S))[dPhe(4-NHCONH2)]L[Lys(iPr)]P[dA]-NH2) | – | – | – | – | – | – | – | – | – | – | Difference [1, 19]: −0.81; Cholesterol-free [1, 23]: 1.673; Complete [1, 24]: 0.859; Cholesterol-free media + simvastatin (0.04 μM) [2, 11]: 1.679; Complete Media [2, 12]: 1.609; Difference ([2]; complete media minus cholesterol-free media + simvastatin (0.04 μM), […]): −0.07
CCC1=C(C)CN(C(=O)NCCc2ccc(S(=O)(=O)NC(=O)N[C@H]3CC[C@H](C)CC3)cc2)C1=O [Glimepiride] | – | – | – | – | – | 1.246 | 0.8316 | 0.9904 | 0.7847 | −0.21 | Difference [1, 9]: −0.41
Cc1cc(C2CCCCC2)n(O)c(=O)c1 [Ciclopirox] | −0.10 | 0.2725 | 0.1741 | 0.2219 | 0.6804 | – | – | – | – | – | Difference [2, 7]: 0.46
N[C@@H](Cc1cc(I)c(Oc2ccc(O)c(I)c2)c(I)c1)C(=O)O [Liothyronine (sodium)] | – | – | – | – | – | 1.224 | 0.9078 | 1.302 | 1.113 | −0.19 | Difference [1, 9]: −0.32
C=C1CC[C@H](O)C/C1=C/C=C1\CCC[C@]2(C)[C@@H]([C@H](C)/C=C/[C@H](C)C(C)C)CC[C@@H]12 [Vitamin D2] | – | – | – | 1.05 | 0.9687 | – | – | – | – | −0.08 | Difference [1, 25]: −0.62; Cholesterol-free [1, 23]: 1.409; Complete [1, 24]: 0.7927
Cc1cc2nc3c(=O)[nH]c(=O)nc-3n(C[C@H](O)[C@H](O)[C@H](O)COP(=O)(O)OP(=O)(O)OC[C@H]3O[C@@H](n4cnc5c(N)ncnc54)[C@H](O)[C@@H]3O)c2cc1C | −0.12 | 0.9242 | 0.8033 | – | – | – | – | 1.111 | 0.8891 | −0.22 | –
CCCc1nn(C)c2c(=O)[nH]c(-c3cc(S(=O)(=O)N4CCN(CCO)CC4)ccc3OCC)nc12 [Lodenafil] | – | – | – | – | – | 0.8421 | 0.5699 | – | – | – | Difference [1, 10]: −0.27; Cholesterol-free media + simvastatin (0.04 μM) ([2]; NCI-H292 cells, cholesterol-free media with simvastatin 0.04 μM, cell growth value in FDA drug screen): 0.819; Complete Media ([2]; NCI-H292 cells, complete media, cell growth value in FDA drug screen): 0.8488; Difference [2, 7]: 0.03
O=C([O-])c1ccccc1O.[Na+] [Sodium Salicylate] | – | – | – | – | – | – | – | – | – | – | Cholesterol-free [1]: 1.153; Complete [1]: 0.943; Difference [1]: −0.21; Cholesterol-free media + simvastatin (0.04 μM) [2]: 1.29; Complete Media [2]: 1.045; Difference [2]: −0.24
OCC(O)CN1CCN(c2ccccc2)CC1 (centres unmarked) [Dropropizine] | – | – | – | – | – | – | – | 1.188 | 0.9581 | −0.23 | Difference [1, 25]: −0.56; Cholesterol-free [1, 23]: 1.559; Complete [1, 24]: 1
CC[C@H]1OC(=O)[C@H](C)[C@@H](O[C@H]2C[C@@](C)(OC)[C@@H](O)[C@H](C)O2)[C@H](C)[C@@H](O[C@@H]2O[C@H](C)C[C@H](N(C)C)[C@H]2O)[C@](C)(O)C[C@@H](C)[C@@H]2N[C@@H](COCCOC)O[C@H]([C@H]2C)[C@]1(C)O [Dirithromycin] | – | – | – | 1.565 | 1.493 | – | – | – | – | −0.07 | Cholesterol-free [1, 20]: 0.918; Complete [1, 21]: 0.9938; Difference [1, 22]: 0.08
Enalapril (maleate) | – | – | – | 1.132 | 1.317 | 1.397 | – | – | – | – | Difference [1, 9]: −0.34; Difference [2, 7]: 0.19
S=P(N1CC1)(N1CC1)N1CC1 [Thio-TEPA] | – | – | – | – | – | – | – | – | – | – | Cholesterol-free [1]: 0.9267; Complete [1]: 0.7941; Difference [1]: −0.13; Cholesterol-free media + simvastatin (0.04 μM) [2]: 0.6864; Complete Media [2]: 0.8177; Difference [2]: 0.13
COc1cc2nc(N(C)CCCNC(=O)C3CCCO3)nc(N)c2cc1OC (centres unmarked) [Alfuzosin] | −0.14 | 0.9745 | 0.8372 | 1.185 | 1.024 | – | – | – | – | −0.16 | –
COc1ccccc1Oc1c(NS(=O)(=O)c2ccc(C(C)(C)C)cc2)nc(-c2ncccn2)nc1OCCO [Bosentan (hydrate)] | −0.13 | 1.31 | 1.181 | – | – | – | – | – | – | – | Cholesterol-free media + simvastatin (0.04 μM) [2, 11]: 1.256; Complete Media [2, 12]: 1.269; Difference [2, 13]: 0.01
CC(C)NCC(O)COc1cccc2[nH]ccc12 (centres unmarked) [Pindolol] | – | – | – | – | – | – | – | 1.032 | 0.7777 | −0.25 | Cholesterol-free [1, 20]: 0.8852; Complete [1, 21]: 0.973; Difference [1, 22]: 0.09
Nc1nc(=O)c2c([nH]1)NC[C@@H](CNc1ccc(C(=O)N[C@@H](CCC(=O)O)C(=O)O)cc1)N2C=O [Folinic acid] | −0.12 | 1.105 | 0.9813 | – | – | – | – | – | – | −0.28 | Cholesterol-free media + simvastatin (0.04 μM) [2, 17]: 1.232; Complete Media [2, 18]: 0.9515
COc1cc([C@@H]2c3cc4c(cc3[C@@H](O[C@@H]3O[C@@H]5CO[C@@H](C)O[C@H]5[C@H](O)[C@H]3O)[C@H]3COC(=O)[C@H]23)OCO4)cc(OC)c1OP(=O)(O)O [Etoposide phosphate] | −0.10 | 0.7876 | 0.6917 | – | – | – | – | 0.9468 | 0.7461 | −0.20 | –
CCCCC(CC)COC(=O)C(C#N)=C(c1ccccc1)c1ccccc1 (centres unmarked) [Octocrylene] | – | – | – | 1.183 | 1.029 | – | – | – | – | −0.15 | Difference [1, 25]: −0.58; Cholesterol-free [1, 23]: 1.541; Complete [1, 24]: 0.9621
